Where only a bound is given, the exact number is not on record here.

T1 sequence (P33032 whole entry): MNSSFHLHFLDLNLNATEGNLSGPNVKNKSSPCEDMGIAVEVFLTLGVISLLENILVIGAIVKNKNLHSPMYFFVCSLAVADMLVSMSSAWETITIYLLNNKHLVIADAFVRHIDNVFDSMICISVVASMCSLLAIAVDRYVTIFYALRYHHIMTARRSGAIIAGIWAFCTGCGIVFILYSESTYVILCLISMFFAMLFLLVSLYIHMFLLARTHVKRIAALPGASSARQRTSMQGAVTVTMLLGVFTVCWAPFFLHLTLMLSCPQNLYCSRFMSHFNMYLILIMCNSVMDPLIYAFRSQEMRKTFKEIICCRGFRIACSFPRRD

The assay has as its target T1, human MC5R (hMC5R) (Homo sapiens, UniProt P33032).
T1 construct: purchased Perkin Elmer RBXMC5M400UA
As to the kind of experiment: Human MC5R radioligand binding assay (membranes, [125I] NDP-MSH displacement). Conditions: hMC5R binding; tested as trifluoroacetate or hydrochloride salts, or free bases; read-out: MC5R radioligand IC50. In a few lines: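 Frozen human MC5R membranes incubated with test compound and in-house iodogen-labeled, HPLC-purified [125I]NDP-MSH for 1 hr at 37° C. Binding measured as displacement of the radioligand.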
For `O=C(NC[C@@H]1CCN(Cc2cc(Cl)cc(Cl)c2)C(=O)[C@H](CCN2CCCCC2)N1)c1cc(-c2ccc(Cl)cc2)on1` [Compound 527, 5-(4-chlorophenyl)-N-(((3S,5S)-1-(3,5-dichlorobenzyl)-2-oxo-3-(2-(piperidin-1-yl)ethyl)-1,4-diazepan-5-yl)methyl)isoxazole-3-carboxamide], the IC50 was below 100 nM.

In the case of `CC[C@H](CN1CC[C@@H](CNC(=O)c2ccc(Cl)c(Cl)c2)N[C@@H](CCCN2CCCCC2)C1=O)c1ccccc1` [Compound 418, 3,4-dichloro-N-(((3S,5S)-2-oxo-1-((S)-2-phenylbutyl)-3-(3-(piperidin-1-yl)propyl)-1,4-diazepan-5-yl)methyl)benzamide], the IC50 was below 100 nM.

As for `CCC(CN1CC[C@@H](CNC(=O)c2ccc3cc(Cl)ccc3c2)N[C@@H](CCN)C1=O)C1CC1` (stereo partly drawn) [Compound 487, N-(((3S,5S)-3-(2-aminoethyl)-1-(2-cyclopropylbutyl)-2-oxo-1,4-diazepan-5-yl)methyl)-6-chloro-2-naphthamide], the IC50 was below 1000 nM.

For the compound `CC1CCCC(C)C1CN1CC[C@@H](CNC(=O)c2ccc3ccccc3c2)N[C@@H](CCCN)C1=O` (stereo partly drawn) [Compound 384, N-(((3S,5S)-3-(3-aminopropyl)-1-((2,6-dimethylcyclohexyl)methyl)-2-oxo-1,4-diazepan-5-yl)methyl)-2-naphthamide], the 50% inhibitory concentration (IC50) is below 10000 nM.

Take `CC[C@H](CN1CC[C@@H](CNC(=O)c2ccc(Cl)c(Cl)c2)N[C@@H](CCN2CCC(F)(F)CC2)C1=O)c1ccccc1` [Compound 483, 3,4-dichloro-N-(((3S,5S)-3-(2-(4,4-difluoropiperidin-1-yl)ethyl)-2-oxo-1-((S)-2-phenylbutyl)-1,4-diazepan-5-yl)methyl)benzamide]: the IC50 was below 100 nM.

For the compound `CC1CC(C)CC(CN2CC[C@@H](CNC(=O)c3ccc4ccccc4c3)N[C@@H](CCN)C2=O)C1` (stereo partly drawn) [Compound 376, N-(((3S,5S)-3-(2-aminoethyl)-1-((3,5-dimethylcyclohexyl)methyl)-2-oxo-1,4-diazepan-5-yl)methyl)-2-naphthamide], the IC50 is below 1000 nM.

`CC[C@@H](CN1CC[C@@H](CNC(=O)c2ccc3cc(Cl)ccc3c2)N[C@@H](CCN2CCCCC2)C1=O)c1ccccc1` [Compound 526, 6-chloro-N-(((3S,5S)-2-oxo-1-((R)-2-phenylbutyl)-3-(2-(piperidin-1-yl)ethyl)-1,4-diazepan-5-yl)methyl)-2-naphthamide]: the concentration for half-maximal inhibition (IC50) is below 10 nM.

For `Cc1ccc(/C=C/C(=O)NC[C@@H]2CCN(CC(c3ccccc3)c3ccccc3)C(=O)[C@H](CCN)N2)c(C)c1` [Compound 399, (E)-N-(((3S,5S)-3-(2-aminoethyl)-1-(2,2-diphenylethyl)-2-oxo-1,4-diazepan-5-yl)methyl)-3-(2,4-dimethylphenyl)acrylamide], the IC50 is below 1000 nM.

For `N=C(N)NCCC[C@@H]1N[C@H](CNC(=O)c2ccc3ccccc3c2)CCN(Cc2cc(Cl)cc(Cl)c2)C1=O` [Compound 14, N-(((3S,5S)-1-(3,5-dichlorobenzyl)-3-(3-guanidinopropyl)-2-oxo-1,4-diazepan-5-yl)methyl)-2-naphthamide], the IC50 is below 100 nM.

As for `CC[C@@H](CN1CC[C@@H](CNC(=O)c2ccc3ccccc3c2)N[C@@H](CCCN)C1=O)c1ccccc1` [Compound 390, N-(((3S,5S)-3-(3-aminopropyl)-2-oxo-1-((R)-2-phenylbutyl)-1,4-diazepan-5-yl)methyl)-2-naphthamide], the IC50 was below 10000 nM.

With `C[C@@H](CN1CC[C@@H](CNC(=O)c2ccc3ccccc3c2)N[C@@H](CCN2CCCCC2)C1=O)c1ccc(Cl)cc1` [Compound 423, N-(((3S,5S)-1-((R)-2-(4-chlorophenyl)propyl)-2-oxo-3-(2-(piperidin-1-yl)ethyl)-1,4-diazepan-5-yl)methyl)-2-naphthamide], the IC50 was below 10000 nM.

On to `N=C(N)NCCC[C@@H]1N[C@H](CNC(=O)c2cc3ccccc3[nH]2)CCN(CC(c2ccccc2)c2ccccc2)C1=O` [Compound 109, N-(((3S,5S)-1-(2,2-diphenylethyl)-3-(3-guanidinopropyl)-2-oxo-1,4-diazepan-5-yl)methyl)-1H-indole-2-carboxamide], for which the IC50 was below 1000 nM.

For the compound `CC[C@H](CN1CC[C@@H](CNC(=O)c2ccc3cc(Cl)ccc3c2)N[C@@H](CCNC(C)C)C1=O)c1ccccc1` [Compound 440, 6-chloro-N-(((3S,5S)-3-(2-(isopropylamino)ethyl)-2-oxo-1-((S)-2-phenylbutyl)-1,4-diazepan-5-yl)methyl)-2-naphthamide], the IC50 is below 10 nM.

As for `N=C(N)NCCC[C@@H]1N[C@H](CNC(=O)c2ccc3ccccc3c2)CCN(CC(Oc2ccccc2)c2ccccc2)C1=O` (stereo partly drawn) [Compound 295, N-(((3S,5S)-3-(3-guanidinopropyl)-2-oxo-1-(2-phenoxy-2-phenylethyl)-1,4-diazepan-5-yl)methyl)-2-naphthamide], the IC50 was below 100 nM.

Take `O=C(NC[C@@H]1CCN(CC(c2ccccc2)c2ccccc2)C(=O)[C@H](CCCNC2CCCC2)N1)c1ccc2ccccc2c1` [Compound 246, N-(((3S,5S)-3-(3-(cyclopentylamino)propyl)-1-(2,2-diphenylethyl)-2-oxo-1,4-diazepan-5-yl)methyl)-2-naphthamide]: the IC50 was below 100 nM.

Turning to `CC[C@@H](CN1CC[C@@H](CNC(=O)c2ccc3ccccc3c2)N[C@@H](CCN2CCCCC2)C1=O)c1ccccc1` [Compound 39, N-(((3S,5S)-2-oxo-1-((R)-2-phenylbutyl)-3-(2-(piperidin-1-yl)ethyl)-1,4-diazepan-5-yl)methyl)-2-naphthamide], the IC50 was below 100 nM.

`O=C(NC[C@@H]1CCN(CC(c2ccccc2)c2ccccc2)C(=O)[C@H](CCCNC2CCC2)N1)c1ccc2ccccc2c1` [Compound 247, N-(((3S,5S)-3-(3-(cyclobutylamino)propyl)-1-(2,2-diphenylethyl)-2-oxo-1,4-diazepan-5-yl)methyl)-2-naphthamide]: the IC50 was below 100 nM.

`NCCC[C@@H]1N[C@H](CNC(=O)c2ccc3ccccc3c2)CCN(Cc2ccccc2Cl)C1=O` [Compound 317, N-(((3S,5S)-3-(3-aminopropyl)-1-(2-chlorobenzyl)-2-oxo-1,4-diazepan-5-yl)methyl)-2-naphthamide]: the 50% inhibitory concentration (IC50) was below 10000 nM.

`CC[C@H](CN1CC[C@@H](CNC(=O)c2ccc3ccccc3c2)N[C@@H](CCN2CCCCC2)C1=O)c1ccccc1` [Compound 38, N-(((3S,5S)-2-oxo-1-((S)-2-phenylbutyl)-3-(2-(piperidin-1-yl)ethyl)-1,4-diazepan-5-yl)methyl)-2-naphthamide]: the IC50 was below 100 nM.

For `CNC(=N)NCCC[C@@H]1N[C@H](CNC(=O)[C@H]2Cc3ccccc3CN2)CCN(CC(c2ccccc2)c2ccccc2)C1=O` [Compound 130, (R)—N-(((3S,5S)-1-(2,2-diphenylethyl)-3-(3-(3-methylguanidino)propyl)-2-oxo-1,4-diazepan-5-yl)methyl)-1,2,3,4-tetrahydroisoquinoline-3-carboxamide], the IC50 was below 10000 nM.

Regarding `CC[C@H](CN1CC[C@@H](CNC(=O)c2ccc(Cl)c(Cl)c2)N[C@@H](CCNC(C)(C)C)C1=O)c1ccccc1` [Compound 430, N-(((3S,5S)-3-(2-(tert-butylamino)ethyl)-2-oxo-1-((S)-2-phenylbutyl)-1,4-diazepan-5-yl)methyl)-3,4-dichlorobenzamide], the IC50 was below 100 nM.

Turning to `O=C(/C=C/c1ccc(Cl)cc1)NC[C@@H]1CCN(CC(c2ccccc2)c2ccccc2)C(=O)[C@H](CCCN2CCCC2)N1` [Compound 258, (E)-3-(4-chlorophenyl)-N-(((3S,5S)-1-(2,2-diphenylethyl)-2-oxo-3-(3-(pyrrolidin-1-yl)propyl)-1,4-diazepan-5-yl)methyl)acrylamide], the IC50 was below 100 nM.

With `CC[C@H](CN1CC[C@@H](CNC(=O)c2ccc3cc(Cl)ccc3c2)N[C@@H](CNC(=N)N)C1=O)c1ccccc1` [Compound 500, 6-chloro-N-(((3S,5S)-3-(guanidinomethyl)-2-oxo-1-((S)-2-phenylbutyl)-1,4-diazepan-5-yl)methyl)-2-naphthamide], the IC50 is below 100 nM.

With `O=C(/C=C/c1ccc(Cl)cc1)NC[C@@H]1CCN(CC(c2ccccc2)c2ccccc2)C(=O)[C@H](CNC(=O)C2CCCCC2)N1` [Compound 402, N-(((2S,7S)-7-(((E)-3-(4-chlorophenyl)acrylamido)methyl)-4-(2,2-diphenylethyl)-3-oxo-1,4-diazepan-2-yl)methyl)cyclohexanecarboxamide], the concentration for half-maximal inhibition (IC50) is below 10000 nM.

As to `O=C(NC[C@@H]1CCN(Cc2cc(Cl)cc(Cl)c2Cl)C(=O)[C@H](CCN2CCCCC2)N1)c1ccc2cc(Cl)ccc2c1` [Compound 522, 6-chloro-N-(((3S,5S)-2-oxo-3-(2-(piperidin-1-yl)ethyl)-1-(2,3,5-trichlorobenzyl)-1,4-diazepan-5-yl)methyl)-2-naphthamide], the IC50 is below 100 nM.

As to `CC(CN1CC[C@@H](CNC(=O)c2ccc3ccccc3c2)N[C@@H](CCCNC(=N)N)C1=O)(c1ccccc1)c1ccccc1` [Compound 200, N-(((3S,5S)-1-(2,2-diphenylpropyl)-3-(3-guanidinopropyl)-2-oxo-1,4-diazepan-5-yl)methyl)-2-naphthamide], the IC50 was below 1000 nM.

As for `NCCC[C@@H]1N[C@H](CNC(=O)c2ccc3ccccc3c2)CCN(Cc2cc(Cl)ccc2Cl)C1=O` [Compound 314, N-(((3S,5S)-3-(3-aminopropyl)-1-(2,5-dichlorobenzyl)-2-oxo-1,4-diazepan-5-yl)methyl)-2-naphthamide], the IC50 is below 10000 nM.

As for `CC[C@H](CN1CC[C@@H](CNC(=O)c2ccc(Cl)c(Cl)c2)N[C@@H](CN2CCCCC2)C1=O)c1ccccc1` [Compound 416, 3,4-dichloro-N-(((3S,5S)-2-oxo-1-((S)-2-phenylbutyl)-3-(piperidin-1-ylmethyl)-1,4-diazepan-5-yl)methyl)benzamide], the IC50 was below 1000 nM.

Take `NCCC[C@@H]1N[C@H](CNC(=O)C=Cc2ccccc2)CCN(CC(c2ccccc2)c2ccccc2)C1=O` [Compound 212, N-(((3S,5S)-3-(3-aminopropyl)-1-(2,2-diphenylethyl)-2-oxo-1,4-diazepan-5-yl)methyl)cinnamamide]: the IC50 was below 1000 nM.
